Source: patent US11040981B2, “Pyrrolotriazine compounds and methods of inhibiting TAM kinases” (Syros Pharmaceuticals, Inc., priority 2017, dated 2021)
Counter-ions that a name gives are not always drawn.

Assays:
[1] = target: T1, MERTK (Homo sapiens, UniProt Q12866); assay: TR-FRET kinase activity assay, MERTK; format: biochemical; settings: for IC50: TR-FRET activity assay, ATP at Km, 60 minutes, read-out: Mer IC50; for FLT3/Mer ratio (FLT3 IC50/Mer IC50): ratio of Mer to FLT3: FLT3 IC50/Mer IC50
T1 sequence (Q12866 21-999): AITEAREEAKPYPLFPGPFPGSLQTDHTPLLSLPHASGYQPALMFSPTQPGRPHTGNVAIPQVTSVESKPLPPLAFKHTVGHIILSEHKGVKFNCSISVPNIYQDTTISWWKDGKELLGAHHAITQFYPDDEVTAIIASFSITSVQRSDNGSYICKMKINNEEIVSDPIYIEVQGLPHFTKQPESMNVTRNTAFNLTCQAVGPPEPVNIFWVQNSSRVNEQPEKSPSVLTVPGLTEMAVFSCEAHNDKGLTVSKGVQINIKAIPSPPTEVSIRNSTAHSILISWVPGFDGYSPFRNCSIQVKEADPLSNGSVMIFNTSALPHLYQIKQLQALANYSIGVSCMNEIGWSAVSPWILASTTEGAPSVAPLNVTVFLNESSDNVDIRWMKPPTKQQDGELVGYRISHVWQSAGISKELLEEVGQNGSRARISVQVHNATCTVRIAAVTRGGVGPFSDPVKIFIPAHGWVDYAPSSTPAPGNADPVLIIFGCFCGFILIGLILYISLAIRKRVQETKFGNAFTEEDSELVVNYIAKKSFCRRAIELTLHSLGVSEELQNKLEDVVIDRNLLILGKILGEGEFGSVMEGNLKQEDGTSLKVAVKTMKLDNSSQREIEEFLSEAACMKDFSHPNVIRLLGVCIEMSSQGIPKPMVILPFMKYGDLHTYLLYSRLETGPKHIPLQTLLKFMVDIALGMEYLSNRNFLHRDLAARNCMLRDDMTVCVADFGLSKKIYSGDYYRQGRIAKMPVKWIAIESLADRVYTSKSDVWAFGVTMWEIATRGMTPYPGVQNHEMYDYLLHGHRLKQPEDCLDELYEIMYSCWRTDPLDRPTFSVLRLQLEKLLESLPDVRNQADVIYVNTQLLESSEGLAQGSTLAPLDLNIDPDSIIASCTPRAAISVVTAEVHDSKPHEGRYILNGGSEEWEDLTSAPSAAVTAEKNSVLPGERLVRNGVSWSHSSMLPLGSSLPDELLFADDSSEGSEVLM
Outline: (§1)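 IC50 reflects the drop in TR-FRET between Eu anti-phosphotyrosine antibody and labelled peptide after a 60-minute room-temperature reaction. Buffer was 50 mM HEPES pH 7.5 with 10 mM MgCl2, 1 mM EGTA, 0.01% Brij 35 and 1 mM DTT, with ATP at Km per enzyme and EDTA quench.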

[2] = target: T2, TYRO3 (Homo sapiens, UniProt Q06418); assay: TR-FRET kinase activity assay, TYRO3; format: biochemical; settings: ATP at Km, 60 minutes
T2 sequence (Q06418 41-890): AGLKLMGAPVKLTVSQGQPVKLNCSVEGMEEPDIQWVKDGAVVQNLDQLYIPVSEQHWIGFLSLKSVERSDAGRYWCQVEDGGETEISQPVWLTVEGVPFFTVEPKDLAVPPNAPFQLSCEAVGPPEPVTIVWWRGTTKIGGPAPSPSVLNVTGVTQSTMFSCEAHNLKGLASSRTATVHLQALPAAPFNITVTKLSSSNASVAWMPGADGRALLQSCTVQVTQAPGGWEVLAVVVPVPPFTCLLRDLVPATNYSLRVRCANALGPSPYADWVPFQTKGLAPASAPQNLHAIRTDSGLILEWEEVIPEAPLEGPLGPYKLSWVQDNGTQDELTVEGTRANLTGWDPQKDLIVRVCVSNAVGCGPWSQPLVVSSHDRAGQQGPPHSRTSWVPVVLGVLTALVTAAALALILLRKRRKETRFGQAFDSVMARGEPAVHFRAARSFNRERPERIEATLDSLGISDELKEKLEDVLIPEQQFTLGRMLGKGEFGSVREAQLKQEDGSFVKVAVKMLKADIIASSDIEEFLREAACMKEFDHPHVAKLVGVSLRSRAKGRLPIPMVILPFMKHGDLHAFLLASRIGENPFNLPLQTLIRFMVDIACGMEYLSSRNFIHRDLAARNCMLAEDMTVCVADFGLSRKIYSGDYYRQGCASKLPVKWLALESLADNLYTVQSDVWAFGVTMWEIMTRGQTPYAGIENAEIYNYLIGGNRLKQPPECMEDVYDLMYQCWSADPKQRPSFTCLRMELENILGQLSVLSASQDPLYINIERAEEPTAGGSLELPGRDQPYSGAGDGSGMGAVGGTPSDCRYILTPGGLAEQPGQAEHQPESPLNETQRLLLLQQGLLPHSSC
Outline: as §1

Row | Compound | IC50 [1] | FLT3/Mer ratio (FLT3 IC50/Mer IC50) [1] | IC50 [2]
1 | COC[C@H](C)Nc1ncc2c(-c3ccnc(C)c3)cc(C3CCC4(CC3)NC(=O)NC4=O)n2n1 (mixture of isomers) [Compound 325, (S)-8-(2-((1-methoxypropan-2-yl)amino)-5-(2-methylpyridin-4-yl)pyrrolo[2,1-f][1,2,4]triazin-7-yl)-1,3-diazaspiro[4.5]decane-2,4-dione] | ≤ 100 nM | +++ (“+++” represents a ratio of >100) | ≤ 100 nM
2 | CCCCC[C@H](C)Nc1ncc2c(C3=CC[C@@H](C(=O)N4CCOCC4)CC3)cc([C@H]3CC[C@H](O)CC3)n2n1 [Compound 113] | ≤ 100 nM | ++ (“++” represents a ratio of between 10 and 100) | ≤ 100 nM
3 | CCCCC[C@H](C)Nc1ncc2c(N3CCNCC3)cc([C@H]3CC[C@H](O)CC3)n2n1 [Compound 114] | ≤ 100 nM | +++ (“+++” represents a ratio of >100) | ≤ 100 nM
4 | CCCCC[C@H](C)Nc1ncc2c(N3CCC(N(C)C)CC3)cc(C3CCC(O)CC3)n2n1.Cl (stereo partly drawn) [Compound 115, 4-[5-[4-(dimethylamino)-1-piperidyl]-2-[[(1S)-1-methylhexyl]amino]pyrrolo[2,1-f][1,2,4]triazin-7-yl]cyclohexanol hydrochloride] | ≤ 100 nM | ++ (“++” represents a ratio of between 10 and 100) | 100 to 1000 nM
5 | CCCCC[C@H](C)Nc1ncc2c(C3CCNCC3)cc([C@H]3CC[C@H](O)CC3)n2n1 [Compound 116, (1S,4r)-4-(2-((S)-heptan-2-ylamino)-5-(piperidin-4-yl)pyrrolo[2,1-f][1,2,4]triazin-7-yl)cyclohexanol hydrochloride] | ≤ 100 nM | +++ (“+++” represents a ratio of >100) | ≤ 100 nM
6 | CCCCC[C@H](C)Nc1ncc2c(N3CCC(C(=O)O)CC3)cc([C@H]3CC[C@H](O)CC3)n2n1 [Compound 117] | ≤ 100 nM | +++ (“+++” represents a ratio of >100) | 100 to 1000 nM
7 | CC[C@H](C)Nc1ncc2c(-c3ccc(CN4CCN(C)CC4)cc3)cc([C@H]3CC[C@H](O)CC3)n2n1 [Compound 118] | ≤ 100 nM | ++ (“++” represents a ratio of between 10 and 100) | ≤ 100 nM
8 | CNS(=O)(=O)c1cncc(-c2cc([C@H]3CC[C@H](O)CC3)n3nc(N[C@@H](C)COC)ncc23)c1 [Compound 272] | ≤ 100 nM | +++ (“+++” represents a ratio of >100) | ≤ 100 nM
9 | CC(CC(F)(F)F)Nc1ncc2c(-c3cncc(S(C)(=O)=O)c3)cc(C3CCC(O)CC3)n2n1 (stereo not drawn) [Compound 273] | ≤ 100 nM | +++ (“+++” represents a ratio of >100) | ≤ 100 nM
10 | COCCn1cc(-c2cc([C@H]3CC[C@H](O)CC3)n3nc(N[C@@H](C)COC(F)F)ncc23)cn1 [Compound 274] | ≤ 100 nM | +++ (“+++” represents a ratio of >100) | ≤ 100 nM
11 | CNS(=O)(=O)c1cncc(-c2cc([C@H]3CC[C@H](O)CC3)n3nc(N[C@@H](C)COC(F)F)ncc23)c1 [Compound 275] | ≤ 100 nM | +++ (“+++” represents a ratio of >100) | ≤ 100 nM
12 | C[C@@H](CC(F)(F)F)Nc1ncc2c(-c3cn[nH]c3)cc([C@H]3CC[C@H](O)CC3)n2n1 [Compound 276] | ≤ 100 nM | +++ (“+++” represents a ratio of >100) | ≤ 100 nM
13 | COC[C@H](C)Nc1ncc2c(-c3cnn(Cc4nnc(C)o4)c3)cc([C@H]3CC[C@H](O)CC3)n2n1 [Compound 277] | ≤ 100 nM | +++ (“+++” represents a ratio of >100) | ≤ 100 nM
14 | CNS(=O)(=O)c1cncc(-c2cc([C@H]3CC[C@H](O)CC3)n3nc(N[C@@H](C)CC(F)(F)F)ncc23)c1 [Compound 278] | ≤ 100 nM | +++ (“+++” represents a ratio of >100) | ≤ 100 nM
15 | COC[C@H](C)Nc1ncc2c(-c3ccc(S(C)(=O)=O)nc3)cc([C@H]3CC[C@H](O)CC3)n2n1 [Compound 279] | ≤ 100 nM | +++ (“+++” represents a ratio of >100) | ≤ 100 nM
16 | COC[C@H](C)Nc1ncc2c(-c3cnn(CCS(C)(=O)=O)c3)cc([C@H]3CC[C@H](O)CC3)n2n1 [Compound 280] | ≤ 100 nM | +++ (“+++” represents a ratio of >100) | ≤ 100 nM
17 | COC[C@H](C)Nc1ncc2c(-c3cnn(Cc4ccnnc4)c3)cc([C@H]3CC[C@H](O)CC3)n2n1 [Compound 281] | ≤ 100 nM | +++ (“+++” represents a ratio of >100) | ≤ 100 nM
18 | COC[C@H](C)Nc1ncc2c(-c3cnn(C(C)(C)C(=O)N4CCOCC4)c3)cc([C@H]3CC[C@H](O)CC3)n2n1 [Compound 282] | ≤ 100 nM | +++ (“+++” represents a ratio of >100) | ≤ 100 nM
19 | COC[C@H](C)Nc1ncc2c(-c3cnn(C(C)(C)C(=O)N4CCC4)c3)cc([C@H]3CC[C@H](O)CC3)n2n1 [Compound 283] | ≤ 100 nM | +++ (“+++” represents a ratio of >100) | ≤ 100 nM
20 | COC[C@H](C)Nc1ncc2c(-c3cnn(C(C)(C)C(=O)O)c3)cc([C@H]3CC[C@H](O)CC3)n2n1 [Compound 284] | ≤ 100 nM | +++ (“+++” represents a ratio of >100) | ≤ 100 nM
21 | COC[C@H](C)Nc1ncc2c(-c3cnn(Cc4noc(C)n4)c3)cc([C@H]3CC[C@H](O)CC3)n2n1 [Compound 285] | ≤ 100 nM | +++ (“+++” represents a ratio of >100) | ≤ 100 nM
22 | COC[C@H](C)Nc1ncc2c(-c3cnn(C4CN(C(C)=O)C4)c3)cc([C@H]3CC[C@H](O)CC3)n2n1 [Compound 286] | ≤ 100 nM | +++ (“+++” represents a ratio of >100) | ≤ 100 nM
23 | COC[C@H](C)Nc1ncc2c(-c3cnn(C4CC(S(C)(=O)=O)C4)c3)cc([C@H]3CC[C@H](O)CC3)n2n1 (stereo partly drawn) [Compound 287] | ≤ 100 nM | +++ (“+++” represents a ratio of >100) | ≤ 100 nM
24 | C[C@@H](CC(F)(F)F)Nc1ncc2c(-c3cnn(CCS(C)(=O)=O)c3)cc([C@H]3CC[C@H](O)CC3)n2n1 [Compound 288] | ≤ 100 nM | ++ (“++” represents a ratio of between 10 and 100) | ≤ 100 nM
25 | C[C@@H](CC(F)(F)F)Nc1ncc2c(-c3cnn([C@@H]4CCOC4)c3)cc([C@H]3CC[C@H](O)CC3)n2n1 [Compound 289] | ≤ 100 nM | + (“+” represents a ratio of >2.0 and <10) | ≤ 100 nM
26 | C[C@@H](CC(F)(F)F)Nc1ncc2c(-c3cnn([C@H]4CCOC4)c3)cc([C@H]3CC[C@H](O)CC3)n2n1 [Compound 290] | ≤ 100 nM | ++ (“++” represents a ratio of between 10 and 100) | ≤ 100 nM
